Patent US6656963B2, “Indole-3-carbinol (I3C) derivatives and methods” (The Regents of the University of California, priority 1997, dated 2003)
pIC50, pKd: −log10 of the molar value. Entries after “also recorded” stand apart in the source; their conditions may differ. Read-outs that look alike come from different tables or passages of the source.

Experiments:
[1] = test system: 7,12-dimethyl-benz(α)anthracene (DMBA)-induced mammary tumors; conditions: cited from earlier work
[2] = test system: MCF7 human breast cancer cells; assay: cells; conditions: for cell proliferation: 48 hours
Procedure: (§1) Particularly suitable assays for I3C derivatives include evaluating their ability to induce a G1 cell cycle arrest and to inhibit CDK6 protein levels in cultured MCF7 breast cancer cells. For the cell proliferative asssays, we have sucessfully employed several methods that we have previously described for rodent mammary tumor cells (44, 51). Briefly, human MCF7 breast cancer cells are cultured at subconfluency in medium supplemented with 10% fetal bovine serum and […] insulin. […] The incorporation of [^3H]thymidine (in a two hour pulse) into 10% trichloroacetic acid precipitable material are used to monitor and quantitate DNA synthesis and provides a direct measure of the proliferative state of the cells.
(§2) Antiproliferative effects of a combination of I3C and the anti-estrogen tamoxifen on breast cancer cell growth: Estrogen receptor (ER)-containing MCF7 or ER-deficient MDA-MB-231 breast cancer cells were treated for 48 hours with 100 μM I3C or 10 μM tamoxifen alone or with a combination of both reagents, and [^3H]thymidine incorporation used as a measure of cell proliferation.

Ah (dioxin) receptor = conditions: cited from earlier work
[3] = gastric acid; cited from earlier work
p21 cell cycle inhibitor = assay: Western blot of p21 cell cycle inhibitor level; format: cell-based, human; conditions: only after 72-96 hours of treatment
Procedure: Western blot analysis has shown that I3C stimulates the level of the p21 cell cycle inhibitor by approximately 3-4 fold only after 72-96 hours of indole treatment, which is when the cells begin to display their maximal cell cycle arrest. This response is not likely to initiate the cell cycle arrest, though provides another useful molecular marker to in the examination of tissue biopsies.

[4] = test system: methylnitrosourea-induced mammary tumors; conditions: administered prior to and during methylnitrosourea treatment; cited from earlier work
[5] = test system: estrogen receptor-deficient MDA-MB-231 breast cancer cells; assay: [3H]thymidine incorporation in estrogen receptor-deficient breast cancer cells; format: cell-based, human; conditions: for growth inhibitory effect: 48 hours, 100 μM I3C, 10 μM tamoxifen, alone or combined
Procedure: (§3) I3C effects on estrogen receptor (ER) function was monitored by transient transfection of an ERE-vit-CAT reporter plasmid containing the vitellogenin promoter with three estrogen response elements linked upstream and driving the bacterial chloramphenicol acetyl transferase (CAT) gene.
as §2

CDK4 = assay: Western/Northern blot of CDK4 expression; format: cell-based, human; conditions: same conditions as CDK6 reduction
Procedure: (§4) Our finding that I3C inhibits the protein levels of the CDK6 cell cycle component provides a unique molecular assay to determine the ability of a given I3C derivative to induce a cell cycle arrest of cancer cells. For example, I3C derivatives may be analyzed by western blot to determine the level of CDK6 protein produced in treated or untreated human MCF7 breast cancer cells. In particular, cells are treated with varying concentrations, varying times alone or in the presence of particular sets of anti-estrogens; treatment with I3C may be used as a positive control. The cell extracts are then electrophoretically fractionated in SDS polyacrylamide gels, blotted onto nitrocellular membranes, the blotted proteins probed with CDK6 antibodies and the CDK6 protein visualized by autoradiography. Other G1 acting cell cycle genes maybe examined to confirm that a given I3C derivative is acting similarly to I3C itself. For example, the levels of the other cyclin dependent kinases (CDK2 and CDK4), cell cycle activators (cyclin D 1, D2, D3 and E) or cell cycle inhibitors (p 15, 16, p21 or p27) that function at discrete times within G1 may be assessed in indole treated or untreated MCF7 breast cancer cells. […]

[6] = test system: human MCF7 breast cancer cells; conditions: 50 μM, long term treatment (up to six weeks), high density cultures; cited from earlier work
MCF-7 cells = assay: Flow cytometry of nuclear DNA content (propidium iodide), cell cycle arrest; format: cell-based, human; conditions: for percentage of MCF7 cells arrested in G1: I3C, tamoxifen alone or combined
Procedure: as §1
To assess the cell cycle effects of I3C, MCF-7 cells treated with or without 100 μM I3C for 96 hours were hypotonically lysed in the presence of propidium iodide to fluorescently stain the nuclear DNA.
as §2

[7] = test system: spontaneous mammary tumors; conditions: cited from earlier work
estrogen receptor (ER) = assay: ERE-vit-CAT reporter plasmid activity in transiently transfected MCF7 cells; format: cell-based, human; conditions: 48 hours; for effect on ERE-vit-CAT activity: estrogen 100 nM
Procedure: Cancer cells are also treated with combinations of indole-derivatives and either steroidal or nonsteroidal anti-estrogens, such as tamoxifen, ICI 164384 and raloxifene (39, 52), at both suboptimal and optimal doses to determine the ability of a given I3C derivative to syngerize with the anti-estrogens in the growth suppression response. […] For example, MCF7 cells are transiently transfected with the ERE-vit-CAT reporter plasmid, which contains three estrogen responsive elements, and the cells monitored for changes in estrogen regulated CAT activity. For comparison, the effects of the I3C derivatives on growth of the estrogen-non-responsive MDA-MB-231 breast cell line are examined. […] Therefore, purified indole derivatives is also assayed in MCF7 cells for Ah receptor affinity, activation of Ah receptor binding to DNA, and activation of an Ah receptor-responsive CAT reporter (17).
as §3

CDK6 [8] = assay: Western and Northern blot of CDK6 in treated breast cancer cells; format: cell-based, human; conditions: for level of CDK6 protein (Western blot): cells treated with combinations of I3C and/or tamoxifen
Procedure: For example, I3C derivatives may be analyzed by western blot to determine the level of CDK6 protein produced in treated or untreated human MCF7 breast cancer cells. In particular, cells are treated with varying concentrations, varying times alone or in the presence of particular sets of anti-estrogens; treatment with I3C may be used as a positive control. The cell extracts are then electrophoretically fractionated in SDS polyacrylamide gels, blotted onto nitrocellular membranes, the blotted proteins probed with CDK6 antibodies and the CDK6 protein visualized by autoradiography. […] For example, the levels of the other cyclin dependent kinases (CDK2 and CDK4), cell cycle activators (cyclin D 1, D2, D3 and E) or cell cycle inhibitors (p 15, 16, p21 or p27) that function at discrete times within G1 may be assessed in indole treated or untreated MCF7 breast cancer cells.
To determine the mechanism by which I3C induces the G1 cell cycle arrest of human breast cancer cells, Western blot and Northern blot analyses were utilized to examine whether I3C treatment regulates the protein production and transcript expression of the cyclin dependent protein kinases (CDKs), cyclins and CDK Inhibitor components of the cell cycle that function within the G1 phase.

[9] = test system: DMBA-induced mammary tumors; conditions: administered prior to and during DMBA treatment; cited from earlier work
CDK6 [10] = assay: CDK6 protein expression in estrogen receptor negative cell lines; format: cell-based
Procedure: To determine the mechanism by which I3C induces the G1 cell cycle arrest of human breast cancer cells, Western blot and Northern blot analyses were utilized to examine whether I3C treatment regulates the protein production and transcript expression of the cyclin dependent protein kinases (CDKs), cyclins and CDK Inhibitor components of the cell cycle that function within the G1 phase. […] In particular, CDK6 transcript levels dropped about 30% in 5 hrs and 60% by 15 hours. […] Furthermore, 13C inhibits CDK6 protein expression in estrogen receptor negative cell lines. […] This novel observation provides a basis for a molecular diagnostic assay to determine the sensitivity of a given tumor sample to I3C growth suppression.

[11] = test system: estradiol 2-hydroxylation; conditions: oral, around 500 mg daily for one week, men and women; cited from earlier work
CDK2 = assay: Western/Northern blot of CDK2 expression; format: cell-based, human; conditions: same conditions as CDK6 reduction
Procedure: as §4

cell growth = assay: Inhibition of cell growth; format: cell-based
cyclin D1 = conditions: estrogen responsive breast cancer cells; cited from earlier work

## c1ccc2c(Cc3c[nH]c4ccccc34)c[nH]c2c1 [DIM, 3,3′-diindolylmethane]
[1]; in vivo
  reduction of DMBA-induced mammary tumors: highly effective
[2]; acid products of I3C
  suppression of MCF7 cell growth: do not suppress growth; also recorded: failed to suppress the growth
Ah (dioxin) receptor
  pKd: 7.05

## OCc1c[nH]c2ccccc12 [Compound I3C, Indole-3-carbinol]
[1]; in the diet or by oral intubation prior to carcinogen
  reduction of incidence of DMBA-induced mammary tumors: 70-80%
[3]
  stability in acidic solution: extremely unstable
p21 cell cycle inhibitor
  stimulation of p21 level: 3-4 fold
[4]
  reduction of mammary tumor incidence: ≤ 65%
[5]
  growth inhibitory effect: strong growth suppression effect
[5]; Homo sapiens, MDA-MB-231, 100 μM, read-out: inhibition of proliferation ([3H]thymidine incorporation)
  inhibition at 100 µM: > 50%
CDK4
  effect on CDK4 expression: no effect
[6]
  estradiol-induced proliferation: blocked
MCF-7 cells; 100 μM, 96 hours
  cells remaining with G2/M DNA content: approximately 13%
  cells with 2n DNA content (G1 block): 75%
MCF-7 cells
  percentage of MCF7 cells arrested in G1: 75%
[7]; diets with 500 or 2000 p.p.m., both doses
  reduction of spontaneous mammary tumor incidence and multiplicity: ca. 50%
[7]; high dose group
  tumor latency: prolonged
Estrogen receptor (ER)
  effect on ERE-vit-CAT activity: no effect
CDK6 [8]; 48 hours prior to complete cell cycle arrest
  time of indole treatment to reduced level of CDK6 protein: ≤ 24 h
CDK6 [8]; by 15 hours
  drop of CDK6 transcript levels: ~60%
CDK6 [8]
  level of CDK6 protein (Western blot): reduced the level of CDK6 protein
CDK6 [8]; in 5 hrs
  drop of CDK6 transcript levels: about 30%
[9]
  reduction of mammary tumor incidence: ≤ 95%
CDK6 [10]
  CDK6 protein expression: inhibits
[11]
  increase in estradiol 2-hydroxylation: approximately 50%
[2]; 100 μM
  cell morphology: no morphology change
  cell proliferation: near maximally growth arrested
[2]; 300 μM
  cell morphology: changed to a more elongated phenotype
  cell proliferation: maximally inhibited
[2]; Homo sapiens, MCF7, read-out: half-maximal response, inhibition of [3H]thymidine incorporation
  pIC50: 4.52
[2]; Homo sapiens, MCF7, read-out: inhibition of MCF7 DNA synthesis ([3H]thymidine incorporation) compared to vehicle controls, 48 hours, 100 μM I3C, 10 μM tamoxifen, alone or combined
  inhibition at 100 µM: ~70%
[2]; Homo sapiens, MCF7, read-out: inhibition of [3H]thymidine incorporation, 100 μM, after 72 hours
  inhibition at 100 µM: 80%
[2]; Homo sapiens, MCF7, read-out: inhibition of [3H]thymidine incorporation, 100 μM, after 96 hours
  inhibition at 100 µM: > 90%
[2]; prolonged exposure (5 days)
  cell death: did not result in any detectable cell death
[2]; time course of addition and withdrawal
  reversibility of growth suppression: completely reversible
[2]; within 48 hours of withdrawal from 48 or 72 hour treated cells
  rate of [3H]thymidine incorporation after withdrawal: approximately equivalent to untreated cells
Ah (dioxin) receptor
  pKd: 4.57
CDK2
  effect on CDK2 expression: no effect

## CC(=O)OCc1cn(C(C)=O)c2ccccc12 [N,O-diacetyl-indole-3-carbinol]
Cell growth
  inhibition of cell growth: particularly effective inhibitors of cell growth

## estrogen
Estrogen receptor (ER)
  effect on ERE-vit-CAT activity: stimulated

## CC/C(=C(\c1ccccc1)c1ccc(OCCN(C)C)cc1)c1ccccc1 [tamoxifen]
[5]
  growth inhibitory effect: no growth inhibitory effects
MCF-7 cells
  percentage of MCF7 cells arrested in G1: 70%
Estrogen receptor (ER); 10% fetal bovine serum
  inhibition of basal ERE-vit-CAT reporter plasmid activity: 70%
Cyclin D1
  cyclin D1 levels: reduces
CDK6 [8]
  level of CDK6 protein (Western blot): not
